{"source": "paper PMC8219695", "about": "(Nature Communications, 2021)", "key": {"hDOR": {"target": "hDOR (Homo sapiens, UniProt P41143)", "sequence (P41143 whole entry)": "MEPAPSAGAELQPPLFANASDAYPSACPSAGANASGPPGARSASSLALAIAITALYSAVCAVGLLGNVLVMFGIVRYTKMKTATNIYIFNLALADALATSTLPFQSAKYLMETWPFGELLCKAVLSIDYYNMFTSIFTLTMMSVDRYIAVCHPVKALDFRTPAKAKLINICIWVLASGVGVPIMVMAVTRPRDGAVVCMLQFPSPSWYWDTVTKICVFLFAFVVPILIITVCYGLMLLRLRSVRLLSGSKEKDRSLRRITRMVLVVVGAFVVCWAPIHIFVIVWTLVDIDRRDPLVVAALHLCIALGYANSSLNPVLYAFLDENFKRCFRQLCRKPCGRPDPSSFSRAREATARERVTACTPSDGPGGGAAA", "assay": "CAMYEL BRET cAMP agonist assay at hDOR", "type": "cell-based", "conditions": "for Agonist activity of 7OH analogs at hDOR: single replicate values, Supplementary Figure 7A"}, "rKOR": {"target": "T1, rKOR (Rattus norvegicus, UniProt P34975)", "T1 construct": "expressed in transfected cells", "T1 sequence (P34975 whole entry)": "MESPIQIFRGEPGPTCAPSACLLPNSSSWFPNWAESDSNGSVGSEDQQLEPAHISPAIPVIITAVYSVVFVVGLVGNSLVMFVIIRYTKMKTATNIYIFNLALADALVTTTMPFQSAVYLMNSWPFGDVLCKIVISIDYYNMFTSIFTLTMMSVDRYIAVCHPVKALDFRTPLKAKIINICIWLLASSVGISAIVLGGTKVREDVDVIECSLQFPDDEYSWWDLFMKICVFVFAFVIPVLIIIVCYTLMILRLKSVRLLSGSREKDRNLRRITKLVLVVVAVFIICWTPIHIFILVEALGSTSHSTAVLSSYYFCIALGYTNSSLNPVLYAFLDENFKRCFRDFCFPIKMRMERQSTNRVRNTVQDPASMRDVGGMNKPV", "assay": "CAMYEL BRET cAMP agonist assay at rKOR", "type": "cell-based", "conditions": "individual replicates, Supplementary Figure 8B source data"}, "hKOR": {"target": "hKOR (Homo sapiens, UniProt P41145)", "sequence (P41145 whole entry)": "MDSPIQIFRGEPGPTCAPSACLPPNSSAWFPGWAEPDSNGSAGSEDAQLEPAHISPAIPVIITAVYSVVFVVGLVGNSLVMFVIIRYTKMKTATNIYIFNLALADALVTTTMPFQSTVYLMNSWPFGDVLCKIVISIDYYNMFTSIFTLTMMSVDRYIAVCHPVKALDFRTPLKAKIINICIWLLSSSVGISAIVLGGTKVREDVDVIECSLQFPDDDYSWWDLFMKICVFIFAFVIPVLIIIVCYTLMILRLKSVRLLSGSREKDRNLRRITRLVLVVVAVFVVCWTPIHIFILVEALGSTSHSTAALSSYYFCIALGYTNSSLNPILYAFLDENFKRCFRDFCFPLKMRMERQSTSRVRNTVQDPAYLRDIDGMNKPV", "assay": "CAMYEL BRET cAMP agonist assay at hKOR", "type": "cell-based", "conditions": "individual replicates, Supplementary Figure 8A source data"}, "CD1 mice": {"tested_on": "CD1 mice", "assay": "Tail-flick antinociception in CD1 mice", "type": "in vivo, mouse", "conditions": "for Tail flick (%MPE), average / Tail flick latency in secs, Av / Tail flick (%MPE) / Tail flick latency / Tail flick latency in secs, mean: sc; for Tail flick (%MPE), average / Tail flick latency in secs, Av: average of 11 animals; for Tail flick (%MPE) / Tail flick latency: individual animals; for Tail flick latency in secs, mean: mean of 8 animals"}}, "note": "pEC50: −log10 of the molar value. “And” between values parts separate entries of the source, which are not always exact repeats. Equal entries are not always repeated.", "data": [{"smiles": "CC[C@@H]1CN2CC[C@@]3(O)C(=Nc4cc(F)cc(OC)c43)[C@@H]2C[C@@H]1/C(=C\\OC)C(=O)OC", "note": "[11-F-7OH (22), 11-Fluoro-7-hydroxymitragynine]", "values": [{"measurement": "Agonist activity of 7OH analogs at hDOR", "setting": "hDOR; Log[drug] (M) -11", "result": "-7.5527 and 10.3457 and 6.839 and 6.552 and 7.529 and 1.024 and 18.8483 and 4.15 and -0.7846"}, {"measurement": "Agonist activity of 7OH analogs at hDOR", "setting": "hDOR; Log[drug] (M) -13", "result": "-0.5197 and 3.103 and 0.8755 and 5.994 and 5.535 and -9.529 and 9.805 and -0.2765"}, {"measurement": "pEC50", "setting": "hDOR; hDOR cAMP BRET, read-out: EC50", "result": 6.82}, {"measurement": "Emax", "setting": "hDOR; read-out: Emax", "result": 26, "unit": "%"}, {"measurement": "Agonist activity of 7OH analogs at rKOR", "setting": "rKOR; Log [drug](M) -5", "result": "22.082 and 29.1799 and 24.9804 and 9.107 and 13.0188 and 13.182 and 6.083 and 2.973 and 4.112"}, {"measurement": "Agonist activity of 7OH analogs at rKOR", "setting": "rKOR; Log [drug](M) -6", "result": "13.2987 and 25.9578 and 3.4416 and 5.534 and 11.6761 and -0.5648 and 7.283 and 13.1071 and 4.997"}, {"measurement": "Agonist activity of 7OH analogs at rKOR", "setting": "rKOR; Log [drug](M) -7", "result": "18.031 and 31.9599 and 33.0367 and -2.212 and 3.5973 and -1.385 and 1.635 and 2.31 and 9.2799"}, {"measurement": "Agonist activity of 7OH analogs at rKOR", "setting": "rKOR; Log [drug](M) -8", "result": "5.787 and -5.909 and 29.0355 and 11.9094 and 9.551 and -12.1962 and 10.3961 and -3.525 and 1.154"}, {"measurement": "Agonist activity of 7OH analogs at rKOR", "setting": "rKOR; Log [drug](M) -9", "result": "2.374 and 3.557 and 1.503 and 17.2927 and 4.288 and -5.051 and 9.998 and -1.969 and -2.384"}, {"measurement": "Agonist activity of 7OH analogs at rKOR", "setting": "rKOR; Log [drug](M) -10", "result": "1.539 and 1.5713 and -3.1102 and 5.6014 and 10.9469 and 10.7639 and 2.853 and 4.901 and 1.67"}, {"measurement": "Agonist activity of 7OH analogs at rKOR", "setting": "rKOR; Log [drug](M) -11", "result": "-1.844 and 21.6085 and 6.867 and 10.1299 and 11.9047 and -4.025 and 6.309 and -3.657 and -2.652"}, {"measurement": "Agonist activity of 7OH analogs at rKOR", "setting": "rKOR; Log [drug](M) -13", "result": "18.2754 and 7.8104 and 16.2642 and 12.0322 and 1.984 and 9.1095 and -1.886 and 4.583 and -1.369"}, {"measurement": "Agonist activity of 7OH analogs at hKOR", "setting": "hKOR; Log [drug](M) -5", "result": "12.7288 and 7.6957 and 5.691 and 5.203 and 10.1397 and 6.346 and 11.5584 and 16.2136 and 8.114"}, {"measurement": "Agonist activity of 7OH analogs at hKOR", "setting": "hKOR; Log [drug](M) -6", "result": "4.1678 and -6.234 and -2.623 and -0.4626 and 5.449 and 14.973 and 13.878 and 7.062 and 8.9598"}, {"measurement": "Agonist activity of 7OH analogs at hKOR", "setting": "hKOR; Log [drug](M) -7", "result": "15.7968 and 0.7988 and 22.403 and -2.445 and 4.302 and 10.7854 and 12.9808 and 8.955 and 17.6223"}, {"measurement": "Agonist activity of 7OH analogs at hKOR", "setting": "hKOR; Log [drug](M) -8", "result": "4.851 and -3.884 and -5.474 and 6.013 and -0.3123 and 2.012 and 9.524 and 10.5291 and 12.8743"}, {"measurement": "Agonist activity of 7OH analogs at hKOR", "setting": "hKOR; Log [drug](M) -9", "result": "-6.272 and 9.969 and -14.9547 and 3.87 and -4.029 and 4.071 and 2.29 and -8.644 and 9.488"}, {"measurement": "Agonist activity of 7OH analogs at hKOR", "setting": "hKOR; Log [drug](M) -10", "result": "-8.62 and -13.3054 and -5.371 and -6.566 and 5.6803 and 0.6674 and -0.4006 and -4.716 and 0.9825"}, {"measurement": "Agonist activity of 7OH analogs at hKOR", "setting": "hKOR; Log [drug](M) -11", "result": "-18.0186 and -16.1556 and -9.7654 and -4.481 and 6.079 and -3.726 and -2.3334 and -2.856 and -4.795"}, {"measurement": "Agonist activity of 7OH analogs at hKOR", "setting": "hKOR; Log [drug](M) -13", "result": "2.027 and -5.796 and 3.769 and 2.62 and 6.896 and -9.516 and -3.456 and 3.959 and -0.5033"}, {"measurement": "duration of residual analgesic effect", "setting": "CD1 mice; 5 mg/kg s.c., CD1 mice", "result": "at least 120 min"}, {"measurement": "time of peak analgesic effect post injection", "setting": "CD1 mice; 5 mg/kg s.c., CD1 mice", "result": 15, "unit": "min"}, {"measurement": "partial analgesic efficacy", "setting": "CD1 mice; 5 mg/kg s.c., CD1 mice, tail-flick", "result": "< 40", "unit": "% MPE"}, {"measurement": "Tail flick (%MPE), average", "setting": "CD1 mice; 5 mg/kg, 15 min", "result": 38, "unit": "%MPE"}, {"measurement": "Tail flick latency in secs, Av", "setting": "CD1 mice; 5 mg/kg, 15 min", "result": 5.1, "unit": "s"}, {"measurement": "Tail flick (%MPE)", "setting": "CD1 mice; 5 mg/kg, 15 min", "result": "53 %MPE and 57 %MPE and 20 %MPE and 21 %MPE and 30 %MPE (2×) and 35 %MPE and 62 %MPE and 25 %MPE and 54 %MPE and 27 %MPE"}, {"measurement": "Tail flick latency", "setting": "CD1 mice; 5 mg/kg, 15 min", "result": "6.3 secs and 6.7 secs and 3.5 secs and 4.2 secs (2×) and 4.9 secs (2×) and 4.3 secs and 7.0 secs and 4.0 secs and 6.6 secs"}, {"measurement": "Tail flick (%MPE), average", "setting": "CD1 mice; 5 mg/kg, 30 min", "result": 32, "unit": "%MPE"}, {"measurement": "Tail flick latency in secs, Av", "setting": "CD1 mice; 5 mg/kg, 30 min", "result": 4.7, "unit": "s"}, {"measurement": "Tail flick (%MPE)", "setting": "CD1 mice; 5 mg/kg, 30 min", "result": "15 %MPE and 100 %MPE and 37 %MPE and 11 %MPE and 14 %MPE and 21 %MPE and 19 %MPE and 56 %MPE and 32 %MPE and 4 %MPE and 38 %MPE"}, {"measurement": "Tail flick latency", "setting": "CD1 mice; 5 mg/kg, 30 min", "result": "3.4 secs (2×) and 10.0 secs and 4.9 secs and 3.8 secs and 3.6 secs (2×) and 6.4 secs and 4.6 secs and 2.9 secs and 5.1 secs"}, {"measurement": "Tail flick (%MPE), average", "setting": "CD1 mice; 5 mg/kg, 60 min", "result": 13, "unit": "%MPE"}, {"measurement": "Tail flick latency in secs, Av", "setting": "CD1 mice; 5 mg/kg, 60 min", "result": 3.3, "unit": "s"}, {"measurement": "Tail flick (%MPE)", "setting": "CD1 mice; 5 mg/kg, 60 min", "result": "15 %MPE and 34 %MPE and 31 %MPE and -9 %MPE and -7.53 %MPE and 10 %MPE and 8 %MPE and 33 %MPE and 11 %MPE and 2.7 %MPE and 18 %MPE"}, {"measurement": "Tail flick latency", "setting": "CD1 mice; 5 mg/kg, 60 min", "result": "3.4 secs and 4.9 secs and 4.4 secs and 1.9 secs and 2.2 secs and 2.7 secs and 2.8 secs (2×) and 4.6 secs and 2.9 secs and 3.5 secs"}, {"measurement": "Tail flick (%MPE), average", "setting": "CD1 mice; 5 mg/kg, 120 min", "result": 15, "unit": "%MPE"}, {"measurement": "Tail flick latency in secs, Av", "setting": "CD1 mice; 5 mg/kg, 120 min", "result": 3.4, "unit": "s"}, {"measurement": "Tail flick (%MPE)", "setting": "CD1 mice; 5 mg/kg, 120 min", "result": "38 %MPE and 44 %MPE and 49 %MPE and -4 %MPE and -12 %MPE and 6 %MPE (2×) and 3.8 %MPE and -1.23 %MPE and 9 %MPE and 22 %MPE"}, {"measurement": "Tail flick latency", "setting": "CD1 mice; 5 mg/kg, 120 min", "result": "5.2 secs and 5.7 secs and 5.9 secs and 2.3 secs (2×) and 1.8 secs (2×) and 2.4 secs and 2.5 secs and 3.3 secs and 3.8 secs"}, {"measurement": "Tail flick (%MPE)", "setting": "CD1 mice; Fig 9b, 5 mg/kg", "result": "17.7 %MPE and 17.8 %MPE and 17.3 %MPE and 17.1 %MPE and 26.9 %MPE and 34.1 %MPE and 38.3 %MPE and 27.3 %MPE"}, {"measurement": "Tail flick latency", "setting": "CD1 mice; Fig 9b, 5 mg/kg", "result": "3.5 s and 4.0 s and 3.3 s and 3.7 s and 4.3 s and 4.6 s and 5.0 s and 4.4 s"}, {"measurement": "Tail flick latency in secs, mean", "setting": "CD1 mice; Fig 9b, 5 mg/kg", "result": 4.1, "unit": "s"}, {"measurement": "Tail flick (%MPE)", "setting": "CD1 mice; Fig 9b, 10 mg/kg", "result": "24.1 %MPE and 13.7 %MPE and 25.9 %MPE and 28.9 %MPE and 26.9 %MPE and 39.0 %MPE and 32.1 %MPE and 27.3 %MPE"}, {"measurement": "Tail flick latency", "setting": "CD1 mice; Fig 9b, 10 mg/kg", "result": "4.0 secs (2×) and 3.7 secs and 4.6 secs and 4.3 secs and 5.0 secs and 4.5 secs and 4.4 secs"}, {"measurement": "Tail flick latency in secs, mean", "setting": "CD1 mice; Fig 9b, 10 mg/kg", "result": 4.3, "unit": "s"}, {"measurement": "Tail flick (%MPE)", "setting": "CD1 mice; Fig 9b, 25 mg/kg", "result": "29.1 %MPE and 27.4 %MPE and 42.0 %MPE and 38.2 %MPE and 23.1 %MPE and 36.6 %MPE and 37.0 %MPE and 44.2 %MPE"}, {"measurement": "Tail flick latency", "setting": "CD1 mice; Fig 9b, 25 mg/kg", "result": "4.4 secs and 4.7 secs and 5.3 secs (2×) and 4.0 secs and 4.8 secs and 4.9 secs and 5.7 secs"}, {"measurement": "Tail flick latency in secs, mean", "setting": "CD1 mice; Fig 9b, 25 mg/kg", "result": 4.9, "unit": "s"}]}]}
